Measured values reported in US20230212517A1, “METHODS FOR GENERATING HEMATOPOIETIC STEM CELLS” (The Brigham and Women's Hospital, Inc., priority 2018, published 2023).

Legend:
E11.5 AGM cells = experiment: RNA-sequencing / whole transcriptome analyses of treated E11.5 AGM cells; assay type: cell-based, mouse; details: Venn comparison of up-regulated genes, endothelial-to-HSC transition
Description: RNA-sequencing analyses were performed to measure gene expression patterns in mouse AGM treated with cyclic strain or pharmacological modulators. Using computational algorithms, hierarchical clustering was performed of differentially expressed genes as well as measured their overrepresented biological processes and pathways. Gene expression clusters of differentially expressed genes were analyzed and their mean expression level across cell populations compared. Next, Venn comparison of up- and down-genes was constructed to analyze candidate(s) important for cyclic strain- or pharmacological modulator(s)-mediated the endothelial-to-HSC transition. Furthermore, Dnmt3b and Dnmt3a protein expressions were analyzed in nuclear fractions of mouse AGM cells using EPIQUIK methyltransferase assay kits. Data are presented as mean±s.d. unless otherwise noted. Statistical analyses were performed by paired or un-paired Student's t-tests. […]
Total RNA from E11.5 mouse AGM explant cultures was isolated (control, stretch, Yoda1 and 4αPDD conditions) with the RNAEASY MiniKit (QIAGEN). […] We mapped our sequenced read fragments to the mouse reference genome GRCm38 (ENSEMBL release 69) using the Genomic Short-Read Nucleotide Alignment program (version 2012 Jul. 20). […] Gene expression clusters of differentially expressed genes were analyzed and their mean expression level across cell populations compared. […]

[1] = system: human iPSC-derived HE cells; experiment: Endothelial-to-hematopoietic transition in human iPSC-derived HE cells (FACS, CD34/CD45); assay type: cell-based; details: Yoda1 between 6.25 and 100 μM
Description: Embryoid body and hemogenic endothelium differentiation was performed as described in (Sugimura et al. 2017; Ditadi et al. 2015). Briefly, hiPSC colonies were dissociated with 0.05% trypsin for 5 min at 37° C., washed with PBS+2% FBS, and resuspended in STEMPRO-34 medium (Invitrogen, 10639-011) supplemented with L-glutamine (2 mM), penicillin/streptomycin (10 ng/ml), ascorbic acid (1 mM), human holo-Transferrin (150 μg/ml, Sigma T0665), monothioglycerol (MTG, 0.4 mM), BMP4 (10 ng/ml), and Y-27632 (10 μM). Five million cells were seeded into 10 cm dishes (Ezsphere, Asahi Glass) for the spheroid formation. On Day 1, bFGF (5 ng/ml) and BMP4 (10 ng/ml) was added to the medium. On Day 2, the media was changed with the STEMPRO-34 supplemented with SB431542 (6 μM), CHIR99021 (3 μM), bFGF (5 ng/ml), and BMP4 (10 ng/ml). On Day 3, the medium was replaced with STEMPRO-34 supplemented with VEGF (15 ng/ml) and bFGF (10 ng/ml). On day 6, the medium was changed to STEMPRO-34 supplemented with bFGF (5 ng/ml), VEGF (15 ng/ml), interleukin (IL)-6 (10 ng/ml), IGF-1 (25 ng/ml), IL-11 (5 ng/ml), SCF (50 ng/ml) and EPO (2IU). The cells were maintained in a 5% CO2, 5% O2 and 95% humidity incubator. […]

Dnmt3b = Dnmt3b protein level in nuclear fractions of E11.5 AGM cells (EPIQUIK assay kit); assay type: cell-based, mouse; details: nuclear fractions of treated E11.5 AGM cells
Description: RNA-sequencing analyses were performed to measure gene expression patterns in mouse AGM treated with cyclic strain or pharmacological modulators. Using computational algorithms, hierarchical clustering was performed of differentially expressed genes as well as measured their overrepresented biological processes and pathways. Gene expression clusters of differentially expressed genes were analyzed and their mean expression level across cell populations compared. Next, Venn comparison of up- and down-genes was constructed to analyze candidate(s) important for cyclic strain- or pharmacological modulator(s)-mediated the endothelial-to-HSC transition. Furthermore, Dnmt3b and Dnmt3a protein expressions were analyzed in nuclear fractions of mouse AGM cells using EPIQUIK methyltransferase assay kits. Data are presented as mean±s.d. unless otherwise noted. Statistical analyses were performed by paired or un-paired Student's t-tests. Significance was set at P<0.05.
Nuclear extracts from AGM explants were harvested using an EPIQUIK Nuclear Extraction Kit (Epigentek Group Inc.). Dnmt3b and Dnmt3a protein levels were analyzed using a colorimetric EPIQUIK methyltransferase Assay Kit (Epigentek Group Inc.), according to the manufacturer's instructions. Concentration of Dnmt3b and Dnmt3a is relative to 1 μg of nuclear extract proteins.

## Clc1cccc(Cl)c1CSc1nnc(-c2cnccn2)s1 [Yoda1, 2-[5-[[(2,6-Dichlorophenyl)methyl]thio]-1,3,4-thiadiazol-2-yl]-pyrazine]
E11.5 AGM cells
  Dnmt3b transcript expression: specifically stimulate
  Gimap6 transcript expression: specifically stimulate
[1]
  dose dependence of the endothelial-to-hematopoietic transition: dose dependent
[1]; 7 days, data not shown
  endothelial-to-hematopoietic transition: induced the endothelial-to-hematopoietic transition
Dnmt3b
  Dnmt3b protein expression level: specifically stimulates Dnmt3b protein expression levels
